According to PubChem BioAssay AID1259407 (Chemical Carcinogenesis Research Information System (CCRIS), 2018):
Active and inactive are the calls of the source. The rule behind the calls is not given here.

Test system: CCRIS mutagenicity, Ames/micronucleus/aberration tests
Test: CCRIS mutagenicity studies
[1] = Test System: AMES SALMONELLA TYPHIMURIUM, Strain/Indicator: TA98, Metabolic Activation: NONE, Method: PREINCUBATION
[2] = Test System: AMES SALMONELLA TYPHIMURIUM, Strain/Indicator: TA98, Metabolic Activation: RAT LIVER S-9, PHENOBARBITAL AND BETA-NAPHTHOFLAVONE, Method: PREINCUBATION
[3] = Test System: AMES SALMONELLA TYPHIMURIUM, Strain/Indicator: TA100, Metabolic Activation: NONE, Method: PREINCUBATION
[4] = Test System: AMES SALMONELLA TYPHIMURIUM, Strain/Indicator: TA100, Metabolic Activation: RAT LIVER S-9, PHENOBARBITAL AND BETA-NAPHTHOFLAVONE, Method: PREINCUBATION
[5] = Test System: AMES SALMONELLA TYPHIMURIUM, Strain/Indicator: TA1535, Metabolic Activation: NONE, Method: PREINCUBATION
[6] = Test System: AMES SALMONELLA TYPHIMURIUM, Strain/Indicator: TA1535, Metabolic Activation: RAT LIVER S-9, PHENOBARBITAL AND BETA-NAPHTHOFLAVONE, Method: PREINCUBATION
[7] = Test System: AMES SALMONELLA TYPHIMURIUM, Strain/Indicator: TA1537, Metabolic Activation: NONE, Method: PREINCUBATION
[8] = Test System: AMES SALMONELLA TYPHIMURIUM, Strain/Indicator: TA1537, Metabolic Activation: RAT LIVER S-9, PHENOBARBITAL AND BETA-NAPHTHOFLAVONE, Method: PREINCUBATION
[9] = Test System: E.COLI, Strain/Indicator: WP2UVRA, Metabolic Activation: NONE, Method: PREINCUBATION
[10] = Test System: E.COLI, Strain/Indicator: WP2UVRA, Metabolic Activation: RAT LIVER S-9, PHENOBARBITAL AND BETA-NAPHTHOFLAVONE, Method: PREINCUBATION
[11] = Test System: AMES SALMONELLA TYPHIMURIUM, Strain/Indicator: TA98, Metabolic Activation: NONE, Method: STANDARD PLATE
[12] = Test System: AMES SALMONELLA TYPHIMURIUM, Strain/Indicator: TA98, Metabolic Activation: RAT, LIVER, S-9, AROCLOR 1254, Method: STANDARD PLATE
[13] = Test System: AMES SALMONELLA TYPHIMURIUM, Strain/Indicator: TA100, Metabolic Activation: NONE, Method: STANDARD PLATE
[14] = Test System: AMES SALMONELLA TYPHIMURIUM, Strain/Indicator: TA100, Metabolic Activation: RAT, LIVER, S-9, AROCLOR 1254, Method: STANDARD PLATE
[15] = Test System: AMES SALMONELLA TYPHIMURIUM, Strain/Indicator: TA1538, Metabolic Activation: NONE, Method: STANDARD PLATE
[16] = Test System: AMES SALMONELLA TYPHIMURIUM, Strain/Indicator: TA1538, Metabolic Activation: RAT, LIVER, S-9, AROCLOR 1254, Method: STANDARD PLATE

`Sc1ccccc1` was tested. Which mutagenic call [1] did it give?
Its mutagenic call is “inactive; negative”.

And the mutagenic call [2]?
The mutagenic call was “inactive; negative”.

And the mutagenic call [3]?
The mutagenic call was “inactive; negative”.

And the mutagenic call [4]?
Its mutagenic call is “inactive; negative”.

And the mutagenic call [5]?
Its mutagenic call is “inactive; negative”.

And the mutagenic call [6]?
Its mutagenic call is “inactive; negative”.

And the mutagenic call [7]?
The mutagenic call was “inactive; negative”.

And the mutagenic call [8]?
Its mutagenic call is “inactive; negative”.

And the mutagenic call (Test System: AMES SALMONELLA TYPHIMURIUM, Strain/Indicator: TA1538, Metabolic Activation: NONE, Method: PREINCUBATION)?
Its mutagenic call is “inactive; negative”.

And the mutagenic call (Test System: AMES SALMONELLA TYPHIMURIUM, Strain/Indicator: TA1538, Metabolic Activation: RAT LIVER S-9, PHENOBARBITAL AND BETA-NAPHTHOFLAVONE, Method: PREINCUBATION)?
Its mutagenic call is “inactive; negative”.

And the mutagenic call [9]?
Its mutagenic call is “active; positive”.

And the mutagenic call [10]?
Its mutagenic call is “inactive; negative”.

Which mutagenic call (Test System: Mouse lymphoma, Strain/Indicator: L5178Y (tk+/tk-), Metabolic Activation: None, Method: Suspension/plate) does the source give for `CC(Oc1ccc(Oc2cnc3cc(Cl)ccc3n2)cc1)C(=O)O` (centres undefined) here?
Its mutagenic call is “active; positive”.

And the mutagenic call (Test System: Mouse lymphoma, Strain/Indicator: L5178Y (tk+/tk-), Metabolic Activation: Rat, Liver, S-9, Aroclor 1254, Method: Suspension/plate)?
The mutagenic call was “active; positive”.

`Nc1ccc2cc(S(=O)(=O)O)c(N=Nc3ccc(N=Nc4ccc(NCCO)cc4NCCO)cc3OCCO)c(O)c2c1` was tested. Which mutagenic call [11] did it give?
Its mutagenic call is “inactive; negative”.

And the mutagenic call [12]?
Its mutagenic call is “active; positive”.

And the mutagenic call [13]?
Its mutagenic call is “inactive; negative”.

What about the mutagenic call [14] of the same compound?
Its mutagenic call is “inactive; negative”.

And the mutagenic call [15]?
Its mutagenic call is “inactive; negative”.

What about the mutagenic call [16] of the same compound?
The mutagenic call was “active; positive”.

What does the source list for `OCCO`?
mutagenic call (Test System: AMES SALMONELLA TYPHIMURIUM, Strain/Indicator: TA98, Metabolic Activation: HAMSTER, LIVER, S-9, AROCLOR 1254 (10%), Method: PREINCUBATION): inactive; negative; mutagenic call [1]: inactive; negative; mutagenic call [2]: inactive; negative; mutagenic call (Test System: AMES SALMONELLA TYPHIMURIUM, Strain/Indicator: TA98, Metabolic Activation: RAT, LIVER, S-9, AROCLOR 1254 (10%), Method: PREINCUBATION): inactive; negative; mutagenic call (Test System: AMES SALMONELLA TYPHIMURIUM, Strain/Indicator: TA100, Metabolic Activation: HAMSTER, LIVER, S-9, AROCLOR 1254 (10%), Method: PREINCUBATION): inactive; negative; mutagenic call [3]: inactive; negative; mutagenic call [4]: inactive; negative; mutagenic call (Test System: AMES SALMONELLA TYPHIMURIUM, Strain/Indicator: TA100, Metabolic Activation: RAT, LIVER, S-9, AROCLOR 1254 (10%), Method: PREINCUBATION): inactive; negative; mutagenic call (Test System: AMES SALMONELLA TYPHIMURIUM, Strain/Indicator: TA1535, Metabolic Activation: HAMSTER, LIVER, S-9, AROCLOR 1254 (10%), Method: PREINCUBATION): inactive; negative; mutagenic call [5]: inactive; negative; mutagenic call [6]: inactive; negative; mutagenic call (Test System: AMES SALMONELLA TYPHIMURIUM, Strain/Indicator: TA1535, Metabolic Activation: RAT, LIVER, S-9, AROCLOR 1254 (10%), Method: PREINCUBATION): inactive; negative; mutagenic call (Test System: AMES SALMONELLA TYPHIMURIUM, Strain/Indicator: TA1537, Metabolic Activation: HAMSTER, LIVER, S-9, AROCLOR 1254 (10%), Method: PREINCUBATION): inactive; negative; mutagenic call [7]: inactive; negative; mutagenic call [8]: inactive; negative; mutagenic call (Test System: AMES SALMONELLA TYPHIMURIUM, Strain/Indicator: TA1537, Metabolic Activation: RAT, LIVER, S-9, AROCLOR 1254 (10%), Method: PREINCUBATION): inactive; negative; mutagenic call [9]: inactive; negative; mutagenic call [10]: inactive; negative; mutagenic call (Test System: MOUSE LYMPHOMA, Strain/Indicator: L5178Y (TK+/TK-), Metabolic Activation: NONE, Method: SUSPENSION/PLATE): inactive; negative; mutagenic call (Test System: MOUSE LYMPHOMA, Strain/Indicator: L5178Y (TK+/TK-), Metabolic Activation: RAT, LIVER, S-9, AROCLOR 1254, Method: SUSPENSION/PLATE): inactive; negative

`Cc1cc2ccccc2c2ccc3c(c12)[C@H]1O[C@H]1[C@@H](O)[C@@H]3O` was tested. Which mutagenic call [3] did it give?
Its mutagenic call is “active; positive”.

`CCCCCCCCCCSCn1cc[n+](C)c1` was tested. Which mutagenic call [11] did it give?
Its mutagenic call is “inactive; negative”.

And the mutagenic call [12]?
The mutagenic call was “inactive; negative”.

What about the mutagenic call [13] of the same compound?
Its mutagenic call is “inactive; negative”.

And the mutagenic call [14]?
The mutagenic call was “active; positive”.

And the mutagenic call (Test System: AMES SALMONELLA TYPHIMURIUM, Strain/Indicator: TA1535, Metabolic Activation: NONE, Method: STANDARD PLATE)?
Its mutagenic call is “inactive; negative”.

What about the mutagenic call (Test System: AMES SALMONELLA TYPHIMURIUM, Strain/Indicator: TA1535, Metabolic Activation: RAT, LIVER, S-9, AROCLOR 1254, Method: STANDARD PLATE) of the same compound?
Its mutagenic call is “active; positive”.

What about the mutagenic call (Test System: AMES SALMONELLA TYPHIMURIUM, Strain/Indicator: TA1537, Metabolic Activation: NONE, Method: STANDARD PLATE) of the same compound?
The mutagenic call was “inactive; negative”.

What about the mutagenic call (Test System: AMES SALMONELLA TYPHIMURIUM, Strain/Indicator: TA1537, Metabolic Activation: RAT, LIVER, S-9, AROCLOR 1254, Method: STANDARD PLATE) of the same compound?
Its mutagenic call is “inactive; negative”.

And the mutagenic call [15]?
Its mutagenic call is “inactive; negative”.

And the mutagenic call [16]?
Its mutagenic call is “inactive; negative”.

For `O=[N+]([O-])c1ccc(-c2ccc([N+](=O)[O-])cc2)cc1`, which mutagenic call (Test System: AMES SALMONELLA TYPHIMURIUM, Strain/Indicator: TA98(1,8-DNP6), Metabolic Activation: NONE, Method: STANDARD PLATE) is on record?
The mutagenic call was “active; positive”.

What about the mutagenic call (Test System: AMES SALMONELLA TYPHIMURIUM, Strain/Indicator: TA98(NR), Metabolic Activation: NONE, Method: STANDARD PLATE) of the same compound?
Its mutagenic call is “inactive; negative”.

And the mutagenic call [1]?
The mutagenic call was “active; positive”.

And the mutagenic call [11]?
Its mutagenic call is “active; positive”.

And the mutagenic call (Test System: AMES SALMONELLA TYPHIMURIUM, Strain/Indicator: TA98, Metabolic Activation: RAT, LIVER, S-9, PCB (10%), Method: PREINCUBATION)?
Its mutagenic call is “active; positive”.

With `CCN(CC)CCNC(=O)c1ccc(N)cc1` as the compound, how does the mutagenic call (Test System: CHINESE HAMSTER V-79, Strain/Indicator: V-79 (HGPRT)/6-THIOGUANINE, Metabolic Activation: NONE) read?
The mutagenic call was “inactive; negative”.

And the mutagenic call (Test System: UDS HUMAN HEPATOCYTES, Strain/Indicator: THY INCORP, Metabolic Activation: NONE, Method: AUTORADIOGRAPHY)?
Its mutagenic call is “inactive; negative”.

What about the mutagenic call (Test System: UDS RAT HEPATOCYTES, Strain/Indicator: THY INCORP, Metabolic Activation: NONE, Method: AUTORADIOGRAPHY) of the same compound?
The mutagenic call was “inactive; negative”.
